According to PubChem BioAssay (NCI):
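Assay format: 96-well plates, 48-hour exposure. TGI: concentration producing complete growth inhibition.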

Columns and labels:
Assay in all cases: growth of human tumour cells (NCI), 48 h
[1] = tested on: UACC-257 melanoma
[2] = tested on: A549 NSCLC
[3] = tested on: UO-31 renal
[4] = tested on: M14 melanoma
[5] = tested on: A498 renal
[6] = tested on: RPMI-8226 leukemia
[7] = tested on: 786-0 renal
[8] = tested on: LXFL 529 NSCLC
[9] = tested on: EKVX NSCLC
[10] = tested on: MOLT-4 leukemia
[11] = tested on: K-562 leukemia
[12] = tested on: NCI-H226 lung
[13] = tested on: U251 CNS
[14] = tested on: SF-539 CNS
[15] = tested on: CAKI-1 renal
[16] = tested on: NCI-H23 lung
[17] = tested on: SN12C renal
[18] = tested on: DLD-1 colon
[19] = tested on: SR leukemia
[20] = tested on: HT29 colon
[21] = tested on: TK-10 renal
[22] = tested on: SF-295 CNS
[23] = tested on: SNB-19 CNS
[24] = tested on: M19-MEL melanoma
[25] = tested on: MALME-3M melanoma
[26] = tested on: HCT-116 colon
[27] = tested on: OVCAR-5 ovarian
[28] = tested on: SK-OV-3 ovarian
[29] = tested on: SF-268 CNS
[30] = tested on: CCRF-CEM leukemia
[31] = tested on: SW-620 colon
[32] = tested on: OVCAR-8 ovarian
[33] = tested on: XF 498 CNS
[34] = tested on: DMS 273 small cell lung
[35] = tested on: COLO 205 colon
[36] = tested on: UACC-62 melanoma
[37] = tested on: SNB-78 CNS
[38] = tested on: IGROV1 ovarian
[39] = tested on: KM12 colon
[40] = tested on: ACHN renal
[41] = tested on: SK-MEL-5 melanoma
[42] = tested on: DMS 114 small cell lung
[43] = tested on: NCI-H522 lung
[44] = tested on: LOX IMVI melanoma
[45] = tested on: HCC-2998 colon
[46] = tested on: SNB-75 CNS
[47] = tested on: HL-60(TB) leukemia
[48] = tested on: NCI-H460 lung
[49] = tested on: HOP-18 NSCLC
[50] = tested on: HOP-62 NSCLC
[51] = tested on: SK-MEL-28 melanoma
[52] = tested on: SK-MEL-2 melanoma
[53] = tested on: OVCAR-3 ovarian
[54] = tested on: RXF 393 renal
[55] = tested on: HCT-15 colon
[56] = tested on: OVCAR-4 ovarian

Question: What does the source list for `CC(C)NCCCC(C)Nc1ccnc2ccc3nn(C)nc3c12` (stereo unspecified)?
Answer: TGI [1]: > 100 µM; TGI [2]: > 100 µM; TGI [3]: > 100 µM; TGI [4]: > 100 µM; TGI [5]: > 100 µM; TGI [6]: > 100 µM; TGI [7]: > 100 µM; TGI [8]: > 100 µM; TGI [9]: > 100 µM; TGI [10]: > 100 µM; TGI [11]: > 100 µM; TGI [12]: > 100 µM; TGI [13]: > 100 µM; TGI [14]: > 100 µM; TGI [15]: > 100 µM; TGI [16]: > 100 µM; TGI [17]: > 100 µM; TGI [18]: > 100 µM; TGI [19]: > 100 µM; TGI [20]: > 100 µM; TGI [21]: > 100 µM; TGI [22]: > 100 µM; TGI [23]: > 100 µM; TGI [24]: > 100 µM; TGI [25]: > 100 µM; TGI [26]: > 100 µM; TGI [27]: > 100 µM; TGI [28]: > 100 µM; TGI [29]: > 100 µM; TGI [30]: > 100 µM; TGI [31]: > 100 µM; TGI [32]: > 100 µM; TGI [33]: > 100 µM; TGI [34]: > 100 µM; TGI [35]: > 100 µM; TGI [36]: > 100 µM; TGI [37]: > 100 µM; TGI [38]: > 100 µM; TGI [39]: > 100 µM; TGI [40]: > 100 µM; TGI [41]: > 100 µM; TGI [42]: > 100 µM; TGI [43]: > 100 µM; TGI [44]: > 100 µM; TGI [45]: > 100 µM; TGI [46]: > 100 µM; TGI [47]: > 100 µM; TGI [48]: > 100 µM; TGI [49]: > 100 µM; TGI [50]: > 100 µM

Question: How did the TGI [1] turn out when `O=C(NN1C(=O)C(Cl)C1c1ccc(O)cc1)c1ccccc1O` (stereo unspecified) was run?
Answer: 55.9 µM

Question: What about the TGI [2] of the same compound?
Answer: 50 µM

Question: And the TGI [3]?
Answer: 29 µM

Question: And the TGI [4]?
Answer: 38.4 µM

Question: And the TGI [7]?
Answer: 33.5 µM

Question: And the TGI [51]?
Answer: 36.5 µM

Question: And the TGI [8]?
Answer: 33.3 µM

Question: And the TGI [52]?
Answer: 48.3 µM

Question: And the TGI [10]?
Answer: > 100 µM

Question: And the TGI [11]?
Answer: > 100 µM

Question: What about the TGI [12] of the same compound?
Answer: 30.7 µM

Question: And the TGI [13]?
Answer: 27.3 µM

Question: What about the TGI [14] of the same compound?
Answer: 38.5 µM

Question: What about the TGI [16] of the same compound?
Answer: 41.8 µM

Question: What about the TGI [17] of the same compound?
Answer: 43.7 µM

Question: And the TGI [18]?
Answer: 30.6 µM

Question: And the TGI [20]?
Answer: 36.1 µM

Question: What about the TGI [21] of the same compound?
Answer: 70.6 µM

Question: What about the TGI [22] of the same compound?
Answer: 33.9 µM

Question: What about the TGI [23] of the same compound?
Answer: 43.7 µM

Question: What about the TGI [53] of the same compound?
Answer: 31.7 µM

Question: And the TGI [24]?
Answer: 40.6 µM

Question: And the TGI [25]?
Answer: 34.5 µM

Question: What about the TGI [54] of the same compound?
Answer: 27 µM

Question: And the TGI [26]?
Answer: 28.5 µM

Question: What about the TGI [28] of the same compound?
Answer: 59.5 µM

Question: And the TGI [55]?
Answer: 30.6 µM

Question: What about the TGI [29] of the same compound?
Answer: 41.2 µM

Question: And the TGI [30]?
Answer: > 100 µM

Question: And the TGI [32]?
Answer: 30.8 µM

Question: And the TGI [33]?
Answer: 23.7 µM

Question: What about the TGI [34] of the same compound?
Answer: 25.5 µM

Question: What about the TGI [56] of the same compound?
Answer: 40.4 µM

Question: And the TGI [36]?
Answer: 32.3 µM

Question: What about the TGI [37] of the same compound?
Answer: 65.4 µM

Question: And the TGI [38]?
Answer: 27.5 µM

Question: What about the TGI [39] of the same compound?
Answer: 29.5 µM

Question: And the TGI [40]?
Answer: 34.5 µM

Question: And the TGI [41]?
Answer: 27.7 µM

Question: What about the TGI [42] of the same compound?
Answer: 29.6 µM

Question: And the TGI [43]?
Answer: 34.5 µM

Question: And the TGI [44]?
Answer: 31.7 µM

Question: And the TGI [46]?
Answer: > 100 µM

Question: And the TGI [47]?
Answer: > 100 µM

Question: And the TGI [48]?
Answer: 35.7 µM

Question: And the TGI [49]?
Answer: 30.4 µM
